The text below walks through data of PMC4552634, “A New Set of Chemical Starting Points with Plasmodium falciparum Transmission-Blocking Potential for Antimalarial Drug Discovery” (PLoS ONE, 2015).

Series [1] has as its system P. falciparum stage V gametocytes. Briefly: Gametocytocidal ATP bioluminescence assay (single point 5 μM and 1 μM, dose-response). The series is classed as cell-based, Plasmodium falciparum. The conditions noted are these: for IC50: Plasmodium falciparum; for Ratio IC50 HepG2/IC50 P. falciparum: IC50 HepG2 divided by IC50 P. falciparum gametocytes.
Description: Purified stage IV-V gametocytes were obtained as previously described [10]. Single point ATP bioluminescence assay and dose–response of positive hits was determined in accordance with the previously published protocol [10].
Series [2] has as its system luciferase reaction (BacTiter-Glo). Kind of series: Interference assay (inhibition of the BacTiter-Glo luciferase reaction). The series is classed as biochemical. Also on record: concentration or dose not given beside the values. The following applies: ATP interference assay. The protocol: To discard possible false-positive results, we performed an interference assay in parallel. […] […]. The ATP solution was made by dissolving ATP powder (ATP standard from the ATPlite 1 step assay kit, reference 6016731, Perkin Elmer) in culture medium. The positive control used was the Luciferase Inhibitor I Calbiochem (Merck, 119113) at 100 μM.

Series [3] has as its system P. falciparum asexual stages. The following applies: TCAMS data, cited from earlier work.
Series [4] concerns KCa2.2, a calcium-dependent K+ channel. Set-up: method as in TCAMS annotation. The following applies: target annotation in TCAMS; ref TCAMS annotation; cited from earlier work.
Series [5] is described as follows: Cytotoxicity in HepG2 cells (intracellular ATP, ATPlite, 48 h). The series is classed as cell-based, human. The conditions noted are these: human, HepG2 cells. For orientation: ATP-based viability assays read luminescence as a measure of living cells.
The next series has as its system HepG2 cells. The description is as above. The following applies: IC50 HepG2 divided by IC50 P. falciparum gametocytes. The series is classed as cell-based, human.
The next series concerns adenosine A3 receptor. Also on record: method as in TCAMS annotation. The conditions noted are these: target annotation in TCAMS; ref TCAMS annotation; cited from earlier work.
Series [6] deals with P. falciparum stage V gametocytes. Kind of series: microbe, parasite or virus in culture. Also on record: BacTiter-Glo ATP luminescence viability of stage V gametocytes, 11-point dose-response IC50. The conditions noted are these: Plasmodium falciparum, 48 h; sheet CSAanalogstable. The protocol:
Once purified, gametocytes were counted using a Neubauer chamber, and the density was adjusted to 2.5 x 10^5 gametocytes/mL. Fifty μL of the gametocyte suspension (1.25 x 10^4 gametocytes) were added to each well of the 384-well plate containing the compounds, using a Multidrop combi (Thermo Electron Corporation). Plates were shaken for 5 sec to homogenize and then incubated at 37°C for 48 h in an atmosphere of 5% CO2, 5% O2, 90% N2. The ATP level of each well was determined using the BacTiter-Glo reagent (Promega) according to the recommendations of the manufacturer. The BacTiter-Glo assay generates a ‘glow-type’ luminescent signal produced by the luciferase reaction, which consists of mono-oxygenation of luciferin catalyzed by luciferase in the presence of Mg^2+, ATP and molecular oxygen. The luminescence was measured using a plate reader (Victor V, Perkin Elmer). […] The background value was subtracted from every other value of the assay prior to further calculation. The average of 16 replicates of vehicle control (0.5% or 0.1% DMSO) represents 100% of signal. Related to this value, each test concentration was calculated as percentage of control. […] However, there was no significant correlation between compound IC50 values obtained against gametocytes and the inhibition of growth of P. falciparum asexual forms as previously determined for TCAMS [6] […]

Series [7] has the same test system. Set-up: BacTiter-Glo ATP luminescence viability of purified stage V gametocytes in 384-well plates, per cent inhibition versus DMSO. The conditions noted are these: 48 h, 5 µM; inhibitor.
[8] abbreviates: P. falciparum gametocytes, average, read-out: IC50 Pf Gametocytes average, IC50 (µM) average.
Where [9] appears, read: P. falciparum asexual stages, read-out: IC50 (µM) Pf asexual stages.
[10] abbreviates: asexual stages, read-out: IC50 asexual.
[11] abbreviates: sexual stages (gametocytes), dose-response, read-out: IC50 sexual.
The mark [12] stands for this setting: IC50 per ratio column head, unit inferred, read-out: Cytotoxicity in HepG2.

Like-named read-outs stand apart in the source and are kept apart here. Where only a bound is given, the exact number is not on record here.

On to `Clc1ccc(Nc2nc(-c3ccccn3)cs2)nc1` [TCMDC-123885], for which the results for the IC50 in series [1] (setting [8]), in series [3] (setting [9]) and in series [3] (setting [10]) were 0.67 µM, 0.77 µM and 0.774 µM, respectively. Moreover, in series [2], the “% Control luminiscence” value came out at 100%. The “reported as inhibitors of KCa2.2” value in series [4] was “inhibitors”.
Turning to `O=C(Nc1nc(-c2ccccn2)cc2ccccc12)c1cccc(Cl)c1` [TCMDC-123886], the “Ratio IC50 HepG2/IC50 P. falciparum” value (in series [1]; in the series on HepG2 cells) was greater than 50 each time. Also, the IC50 in series [1] (setting [8]) was 0.5 µM; in series [1] (setting [11]), 0.497 µM; in series [3] (setting [9]), 0.75 µM; in series [3] (setting [10]), 0.754 µM. Besides, the “% Control luminiscence” value in series [2] is 100%. Further, in series [5] (setting [12]), the IC50 at 48 h was greater than 25 µM. Besides, in the series with adenosine A3 receptor, the “reported as an adenosine A3 receptor ligand” value is “ligand”.
As to `CC(C)c1ccc(NC(=S)NN=Cc2ccccn2)cc1` [TCMDC-125520], the “Ratio IC50 HepG2/IC50 P. falciparum” value (in series [1]; with HepG2 cells) was greater than 1306 throughout. Further, the IC50 was less than 0.0098 µM in [1] (setting [8]), 0.72 µM in series [3] (setting [9]), 0.724 µM in [3] (setting [10]) and 9.8 nM in series [6]. The IC50 at 48 h was found to be 13 µM in series [5] (HepG2, 48 h exposure, intracellular ATP, read-out: IC50 (μM) Cytotoxicity HepG2) and 12.8 µM in series [5] (setting [12]).
On to `Cc1ccnc(Nc2nc(-c3ccccn3)cs2)c1` [TCMDC-125769], for which the IC50 was 0.0433 µM in series [1] (setting [8]); 0.04 µM in [1] (gametocytes (GC), value as repeated in the Clusters sheet, read-out: IC50 GC); 0.043 µM in [1] (setting [11]); 1 µM in series [3] (setting [9]); 0.998 µM in series [3] (setting [10]). Also, in [4], the “reported as inhibitors of KCa2.2” value is recorded as “inhibitors”.
For `NC(=O)c1ccccc1Nc1nc(Nc2ccn[nH]2)ncc1Cl` [TCMDC-134169], in [7], the % Inhibition (usually the relative decrease from the control value, in per cent) is recorded as -47.65%.
Same read-out and setting: to `Cc1ccccc1N1CCN(c2ccc(C(=O)NC3CC3)cn2)CC1` [TCMDC-134578] belongs 39.4%.
